Data on one compound can be found in ChEMBL document CHEMBL1148572, “1-((S)-2-aminopropyl)-1H-indazol-6-ol: a potent peripherally acting 5-HT2 receptor agonist with ocular hypotensive activity” (J Med Chem, 2006).

The target of series [1] is Estrogen receptor (Homo sapiens) (UniProt Q92731+P03372). Put plainly: Inhibition of estrogen receptor at 10 uM. In kind it is protein assay.
Series [2] has as its target T1, Endothelin-1 receptor (Homo sapiens) (UniProt P25101).
T1 sequence (whole entry): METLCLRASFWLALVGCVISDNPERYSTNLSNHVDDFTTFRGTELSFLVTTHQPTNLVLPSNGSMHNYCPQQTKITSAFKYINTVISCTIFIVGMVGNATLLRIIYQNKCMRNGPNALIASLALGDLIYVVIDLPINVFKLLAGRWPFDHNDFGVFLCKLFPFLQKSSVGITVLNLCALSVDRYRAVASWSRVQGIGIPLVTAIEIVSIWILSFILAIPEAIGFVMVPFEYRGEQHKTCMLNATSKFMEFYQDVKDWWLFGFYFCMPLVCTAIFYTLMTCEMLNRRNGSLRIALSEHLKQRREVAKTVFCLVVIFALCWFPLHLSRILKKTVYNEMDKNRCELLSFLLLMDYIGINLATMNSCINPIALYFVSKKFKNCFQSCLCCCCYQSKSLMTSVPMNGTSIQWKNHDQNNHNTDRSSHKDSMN
Kind of series: Inhibition of human recombinant endothelin 1 receptor 1 nM.

The nature of series [3]: Inhibition of non selective binding to VIP at 10 uM.
The target of series [4] is 5-hydroxytryptamine receptor 7 (Homo sapiens, UniProt P34969). Put plainly: Activity at 5HT7 receptor expressed in human corneal epithelial CEPI-17-CL4 cells by adenylyl cyclase assay. It is filed as functional, cell-based, Cornea.
The target in series [5] is T2, Glutamate receptor ionotropic AMPA (Homo sapiens) (UniProt P48058+P42263+P42262+P42261). Kind of series: Inhibition of AMPA receptor at 10 uM. In kind it is protein-complex assay.
Series [6] is described as follows: Inhibitory activity at calcium activated potassium channel 6 at 10 uM.
Series [7] has as its target T3, monoamine oxidase A (MAO-A) (Rattus norvegicus, UniProt P21396).
T3 sequence (P21396 whole entry): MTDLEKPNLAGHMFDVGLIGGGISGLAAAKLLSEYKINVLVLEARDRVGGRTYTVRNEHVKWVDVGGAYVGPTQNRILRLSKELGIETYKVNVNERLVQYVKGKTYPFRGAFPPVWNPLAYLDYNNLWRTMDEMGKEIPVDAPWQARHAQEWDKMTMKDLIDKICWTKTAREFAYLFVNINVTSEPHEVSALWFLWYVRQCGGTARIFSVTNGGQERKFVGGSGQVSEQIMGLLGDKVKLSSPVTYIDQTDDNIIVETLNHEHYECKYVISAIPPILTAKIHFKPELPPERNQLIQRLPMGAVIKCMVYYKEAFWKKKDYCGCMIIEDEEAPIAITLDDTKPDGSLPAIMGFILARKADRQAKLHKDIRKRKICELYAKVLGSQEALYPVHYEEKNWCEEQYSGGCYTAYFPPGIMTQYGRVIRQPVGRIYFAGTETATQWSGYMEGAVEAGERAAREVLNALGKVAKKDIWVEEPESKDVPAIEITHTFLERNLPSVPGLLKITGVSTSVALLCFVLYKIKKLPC
Put plainly: Inhibition of monoamine oxidase A in rat brain at 10 uM. It is filed as tissue-based.

The target of series [8] is 5-hydroxytryptamine receptor 4 (Homo sapiens, UniProt Q13639). Kind of series: Inhibitory activity against 5HT4 receptor.
The species named for series [9] is Homo sapiens. Put plainly: Inhibition of inositol triphosphate IP3 at 10 uM. It is filed as functional.
The nature of series [10]: Distribution coefficient at pH 7.4. Conditions: octanol/water. It is filed as physicochemical.
Series [11] concerns the target T4, Alpha-2A adrenergic receptor (Homo sapiens, UniProt P08913).
T4 sequence (P08913 whole entry): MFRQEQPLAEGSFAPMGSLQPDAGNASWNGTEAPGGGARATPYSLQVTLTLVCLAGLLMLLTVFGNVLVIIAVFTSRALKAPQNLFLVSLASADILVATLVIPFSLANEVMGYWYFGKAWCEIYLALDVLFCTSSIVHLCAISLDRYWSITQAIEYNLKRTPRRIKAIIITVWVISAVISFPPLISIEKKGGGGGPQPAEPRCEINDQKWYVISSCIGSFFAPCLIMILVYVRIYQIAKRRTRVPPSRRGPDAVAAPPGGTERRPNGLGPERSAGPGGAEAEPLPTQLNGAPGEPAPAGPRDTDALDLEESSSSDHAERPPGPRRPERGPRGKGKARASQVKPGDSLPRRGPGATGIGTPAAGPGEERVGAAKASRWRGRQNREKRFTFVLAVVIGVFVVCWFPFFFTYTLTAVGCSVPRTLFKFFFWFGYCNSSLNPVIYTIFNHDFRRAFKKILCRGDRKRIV
Put plainly: Activity at adrenergic alpha-2A receptor expressed in human clonic adenocarcinoma HT29 cell by adenylyl cyclase assay. It is filed as functional, cell-based, HT-29.

Series [12] concerns the target GABA-A receptor; agonist GABA site (Homo sapiens) (UniProt P14867+P47870+P28472+P48169+P34903+P18505+P47869+P31644+Q16445). Kind of series: Inhibition of agonist site of GABAA receptor at 1 nM. It is filed as functional.
Series [13] concerns the target Glutamate [NMDA] receptor (Homo sapiens) (UniProt Q05586+Q12879+Q13224+O15399+O60391+Q14957+Q8TCU5). Put plainly: Inhibition of agonist site of NMDA receptor at 1 nM. It is filed as functional.
Series [14] addresses 5-hydroxytryptamine receptor 2B (Homo sapiens, UniProt P41595). Put plainly: biochemical.
Description: Displacement of [125I]DOI from cloned human 5HT2B receptor expressed in CHO cells
Series [15] has as its target Epidermal growth factor receptor (Homo sapiens) (UniProt P00533). Put plainly: Inhibition of EGFR at 10 uM.
Series [16] concerns the target T2, Glutamate receptor ionotropic AMPA (Homo sapiens). Put plainly: Inhibition of AMPA receptor at 100 nM. In kind it is protein-complex assay.
Series [17] concerns the target T5, Type-1 angiotensin II receptor (Homo sapiens) (UniProt P30556).
T5 sequence (whole entry): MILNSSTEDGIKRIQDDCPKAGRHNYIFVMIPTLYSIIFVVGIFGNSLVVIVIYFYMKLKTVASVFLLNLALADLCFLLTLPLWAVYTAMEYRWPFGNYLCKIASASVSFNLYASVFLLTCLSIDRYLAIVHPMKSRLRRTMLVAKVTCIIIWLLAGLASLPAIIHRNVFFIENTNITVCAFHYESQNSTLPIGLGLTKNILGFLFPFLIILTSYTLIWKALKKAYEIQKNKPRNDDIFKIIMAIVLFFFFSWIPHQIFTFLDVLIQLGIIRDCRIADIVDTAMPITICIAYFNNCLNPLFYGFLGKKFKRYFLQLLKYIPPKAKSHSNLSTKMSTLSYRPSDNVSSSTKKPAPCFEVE
Kind of series: Inhibition of type 1 angiotensin 2 receptor at 10 uM.

For series [18], the target named is L-type calcium channel, dihydropyridine site (Homo sapiens, UniProt O60840+Q01668+Q13698+Q13936). Put plainly: Inhibitory activity at dihydropyridine site of Calcium channel L type at 1 nM. In kind it is protein assay.
Series [19] concerns MDR1 (P-gp). Put plainly: Permeability from apical to basolateral side of the MDCK cell transfected with human MDR1. In kind it is ADME, cell-based.
For series [20], the target named is 5-hydroxytryptamine receptor 5A (Homo sapiens, UniProt P47898). Kind of series: Inhibitory activity against 5HT5A receptor.
5-hydroxytryptamine receptor 5A, sequence (P47898 whole entry): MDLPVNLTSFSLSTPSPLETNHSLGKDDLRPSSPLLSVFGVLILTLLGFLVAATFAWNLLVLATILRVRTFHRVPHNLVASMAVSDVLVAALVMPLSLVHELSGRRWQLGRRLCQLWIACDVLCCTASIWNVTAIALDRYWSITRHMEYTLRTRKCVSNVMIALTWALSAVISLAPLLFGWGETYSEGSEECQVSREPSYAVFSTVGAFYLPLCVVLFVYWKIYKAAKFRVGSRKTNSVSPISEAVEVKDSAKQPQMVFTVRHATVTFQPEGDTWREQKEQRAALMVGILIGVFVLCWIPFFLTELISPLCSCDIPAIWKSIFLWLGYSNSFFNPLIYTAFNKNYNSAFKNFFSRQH

5-hydroxytryptamine receptor 4, sequence (Q13639 whole entry): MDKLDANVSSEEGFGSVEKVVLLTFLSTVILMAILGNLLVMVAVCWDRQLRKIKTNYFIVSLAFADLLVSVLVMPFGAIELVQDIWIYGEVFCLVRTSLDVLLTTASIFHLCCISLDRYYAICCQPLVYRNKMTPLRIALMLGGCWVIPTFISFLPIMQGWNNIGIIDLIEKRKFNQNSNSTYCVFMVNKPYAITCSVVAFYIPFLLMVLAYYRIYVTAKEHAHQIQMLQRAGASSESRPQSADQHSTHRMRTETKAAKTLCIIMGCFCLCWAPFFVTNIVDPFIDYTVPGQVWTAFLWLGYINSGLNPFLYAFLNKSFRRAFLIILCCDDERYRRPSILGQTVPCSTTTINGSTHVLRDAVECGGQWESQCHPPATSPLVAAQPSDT
5-hydroxytryptamine receptor 2B, sequence (P41595 whole entry): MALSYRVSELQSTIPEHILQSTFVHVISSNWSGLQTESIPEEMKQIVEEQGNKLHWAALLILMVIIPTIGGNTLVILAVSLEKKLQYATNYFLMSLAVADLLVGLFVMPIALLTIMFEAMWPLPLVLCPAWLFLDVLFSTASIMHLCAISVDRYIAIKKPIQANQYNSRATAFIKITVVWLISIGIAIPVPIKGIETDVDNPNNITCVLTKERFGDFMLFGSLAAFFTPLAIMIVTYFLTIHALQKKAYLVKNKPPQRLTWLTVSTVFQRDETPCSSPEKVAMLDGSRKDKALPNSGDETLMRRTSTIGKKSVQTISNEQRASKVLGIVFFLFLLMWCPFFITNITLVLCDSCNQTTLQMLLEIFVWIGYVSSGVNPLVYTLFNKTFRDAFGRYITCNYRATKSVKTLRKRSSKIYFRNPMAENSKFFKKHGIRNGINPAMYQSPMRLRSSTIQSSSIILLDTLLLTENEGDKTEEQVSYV
Epidermal growth factor receptor (Homo sapiens), sequence (P00533 whole entry): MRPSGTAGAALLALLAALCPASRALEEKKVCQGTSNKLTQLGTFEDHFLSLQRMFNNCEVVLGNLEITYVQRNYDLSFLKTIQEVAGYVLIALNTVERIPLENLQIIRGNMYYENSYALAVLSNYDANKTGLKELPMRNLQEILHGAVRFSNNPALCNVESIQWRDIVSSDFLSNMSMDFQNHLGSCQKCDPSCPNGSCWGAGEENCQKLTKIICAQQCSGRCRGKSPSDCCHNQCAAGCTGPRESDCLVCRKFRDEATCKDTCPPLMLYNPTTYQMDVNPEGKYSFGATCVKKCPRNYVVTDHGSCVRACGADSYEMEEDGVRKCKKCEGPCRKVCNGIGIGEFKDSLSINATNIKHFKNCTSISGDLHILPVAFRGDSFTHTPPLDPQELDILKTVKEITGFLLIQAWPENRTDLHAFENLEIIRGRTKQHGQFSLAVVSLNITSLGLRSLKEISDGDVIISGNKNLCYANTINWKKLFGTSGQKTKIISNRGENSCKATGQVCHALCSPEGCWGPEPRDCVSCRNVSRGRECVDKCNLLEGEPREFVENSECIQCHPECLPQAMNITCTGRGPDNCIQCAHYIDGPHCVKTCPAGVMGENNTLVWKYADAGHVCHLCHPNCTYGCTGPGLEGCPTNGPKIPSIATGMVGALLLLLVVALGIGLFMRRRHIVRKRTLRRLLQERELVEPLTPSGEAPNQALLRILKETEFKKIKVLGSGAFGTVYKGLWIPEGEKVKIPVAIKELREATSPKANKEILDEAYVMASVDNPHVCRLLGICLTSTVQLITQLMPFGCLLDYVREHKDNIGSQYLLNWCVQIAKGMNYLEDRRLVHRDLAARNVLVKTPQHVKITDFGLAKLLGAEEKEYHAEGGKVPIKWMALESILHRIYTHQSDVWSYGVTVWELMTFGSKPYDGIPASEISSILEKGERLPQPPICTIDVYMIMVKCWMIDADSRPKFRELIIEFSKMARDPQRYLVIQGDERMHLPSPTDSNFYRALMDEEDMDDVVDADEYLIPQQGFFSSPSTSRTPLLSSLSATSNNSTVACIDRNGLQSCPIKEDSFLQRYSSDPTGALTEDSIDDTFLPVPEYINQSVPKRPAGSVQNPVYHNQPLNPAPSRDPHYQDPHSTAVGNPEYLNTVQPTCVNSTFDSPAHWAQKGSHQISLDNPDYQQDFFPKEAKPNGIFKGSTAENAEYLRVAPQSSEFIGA
5-hydroxytryptamine receptor 7, sequence (P34969 whole entry): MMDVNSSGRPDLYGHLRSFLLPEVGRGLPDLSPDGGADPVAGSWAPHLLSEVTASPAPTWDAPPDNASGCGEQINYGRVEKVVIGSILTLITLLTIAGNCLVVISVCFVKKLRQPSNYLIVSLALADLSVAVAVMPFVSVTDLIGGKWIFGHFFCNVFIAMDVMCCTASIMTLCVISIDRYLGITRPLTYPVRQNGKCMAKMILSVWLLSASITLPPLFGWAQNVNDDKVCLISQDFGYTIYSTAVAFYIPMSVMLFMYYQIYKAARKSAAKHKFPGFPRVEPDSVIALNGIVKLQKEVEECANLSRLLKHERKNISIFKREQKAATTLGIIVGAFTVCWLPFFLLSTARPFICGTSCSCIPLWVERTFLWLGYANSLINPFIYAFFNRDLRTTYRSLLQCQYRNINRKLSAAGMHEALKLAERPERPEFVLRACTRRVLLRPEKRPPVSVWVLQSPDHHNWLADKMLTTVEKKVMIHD

Take `C[C@H](N)Cn1ncc2ccc(O)cc21`: the inhibition is 17.7% in series [1]; 2.41% in [2]; -5.59% in series [3]; 7.62% in [5]; -8.15% in series [6]; 2.11% in series [9]. Further, the inhibition was 15.2% in series [12]; 14.9% in series [13]; -5.17% in series [15]; 9.45% in [16]; 6.55% in series [17]. The EC50 in series [4] is 5.6 µM; in [11], more than 10 µM. Besides, the inhibition at 10 µM in [7] amounted to 0.82%. The Ki is 0.515 µM in series [8], 0.0081 µM in [14] and more than 10 µM in series [20]. For the same compound, the logD in series [10] is 0.693. Moreover, the inhibition at 0.001 µM in series [18] amounted to 2.17%. In [19], this compound yielded a Papp A→B of 0.76 ×10⁻⁶ cm/s.

A word on the inhibition: it is the change of the read-out against control, counted positive when it falls. As a reminder, the EC50 is the concentration giving half of the maximal effect. Higher therefore signals a less potent agent. One may read the Ki as the dissociation constant of the complex between target and ligand, obtained from inhibition or displacement. As usually defined, the logD is the decadic logarithm of the distribution of all forms, ionised or not, between an organic phase and buffer at a given pH. Read a high logD as a more lipophilic compound. As a reminder, the Papp A→B is the apparent permeability from the apical to the basolateral side of a cell layer.
